*1 amine or outer side, *2 acyl side, *3 side chain or, on linkers, in order; H or OH if unused. Where a SMILES comes first, the peptide text is derived from it. Bridges are numbered along the chain shown (N, C = ends). [ ]: non-standard residue; d: D form. The star is where a group is joined. X1 = NC1=N[C@@H]([C@H](N[*:1])C(=O)[*:2])C[C@H](O)N1; ΔAla(Z-3-ureido) = NC(=O)N/C=C(\N)C(=O)O; β3hOrn = NCCC[C@H](N)CC(=O)*; Dap = NC[C@H](N)C(=O)O
Experiments:
[1] = test system: P.chabaudi; experiment: Mice infected with P.chabaudi; type: in vivo; details: for development of the infection in mice: intraperitoneally 0.1 ml of 100 mM
Protocol: The solid line is for aurodox, the dotted line is for mocimycin and the dashed line is for no drug controls. The arrows on the x-axis indicate days on which three 0.1 ml 100 mM ip injections were given.
On the basis of these findings, preliminary studies were carried out on mice infected with P.chabaudi. In the first experiment, mice were infected and inoculated on the same day intraperitoneally with 0.1 ml of 100 mM Aurodox, a dose calculated to mimic the maximal inhibitory effect observed in vitro. […] In a single experiment.

[2] = test system: erythrocytic stages of P.falciparum; experiment: Incorporation of radiotracers (3H-hypoxanthine, 14C-isoleucine) by P.falciparum growing in blood cultures; type: cell-based, Plasmodium falciparum; details: for concentration at which maximum inhibition of radiotracer incorporation was achieved: cultures over a 36 hr period
Protocol: Antibiotics—Samples of Mocimycin (kirromycin), Aurodox (N-methylated kirromycin), and Efrotomycin (a glycoside of kirromycin) were used. Aurodox was dissolved in RPMI-Albumax medium (Grande et al 1977), kirromycin was dissolved in RPMI made alkaline by addition of 1M NaOH, and efrotomycin was dissolved in ethanol before dilution in culture medium. Enacyloxin IIA was dissolved in 1% NaHCO3 prior to dilution in RPMI-Albumax medium. The antibiotic GE2270A was dissolved in 100% DMSO before dilution in culture medium. Fusidic acid (Sigma) was dissolved directly in culture medium, and thiostrepton (Sigma) in 100% DMSO before dilution in culture medium. A hemisuccinate form of thiostrepton was prepared as a potassium salt, according to Bodanszky et al 1965. Incorporation of radiotracers by P.falciparum growing in blood cultures in the presence and absence of drugs was carried out as described (Strath et al 1993).
(§1) Kirromycin: Kirromycin-resistant forms of bacterial EF-Tu are modified at one of seven amino acids along the opposing interfaces of domains I and III (Mesters et al 1994 and Abdulkarim et al 1994) and Pf EF-Tupl has a substitution at one of these sites (A375S-E.coli numbers) that could potentially confer resistance to kirromycin. To test this possibility, kirromycin (Mocimycin), its methylated derivative Aurodox or its disaccharide derivative Efrotomycin were incubated with erythrocytic stages of P.falciparum grown in cultures over a 36 hr period. The incorporation of both ^3H-hypoxanthine and ^14C-isoleucine was inhibited in a dose-dependent fashion, maximum inhibition being achieved at 100 μM kirromycin (FIG. 5). […] Once maximal depression of incorporation had been reached at any particular dose of drug, residual incorporation continued at a uniform rate thereafter. Vital staining with rhodamine 123, a fluorescent dye that concentrates within the mitochondrion (Divo et al. 1985) confirmed the parasiticidal effect, loss of specific mt staining being evident within 2-3 hours (data not shown). […] Blood cultures of P.falciparum were about 10 times more sensitive to the antibiotic than a gram-positive bacterium (Corynebacterium spp) used in parallel bioassays.

[3] = target: T1, heterologously expressed Pf EF-Tupl (Plasmodium falciparum, UniProt Q25820); experiment: Band shift in native polyacrylamide gel with expressed Pf EF-Tupl; type: binding; details: 100 μM antibiotic, 100 μM GDP, native 12% polyacrylamide gel
T1 construct: one clone in JM109 contained the complete insert; GST (cleaved yes); made in house; host or cells: E. coli JM109 (pGEX)
Protocol: FIG. 13 contains immunoblots showing that binding of antibiotics modifies migration of EF-Tu.GDP in native polyacrylamide gels. Two segments of the same gel show A) heterologously expressed Pf EF-Tupl protein detected with a malaria peptide-specific antibody and B) E.coli EF-Tu detected with a specific antibody (Breidenbach et al 1990). Lanes without antibiotics (1 and 5), lanes with 100 μM antibiotic: GE2270A (2 and 6), enacyloxin lla (3 and 7), kirromycin (4 and 8). Arrows indicate uncomplexed EF-Tu.
Drug binding—Thiostrepton binding to short rRNA transcripts generated in vitro was assayed according to Ryan et al 1991, as modified by Clough et al 1997. […] Before […], samples were incubated on ice for 15 mins in 50 mM imidazole acetate (pH 7.6), 10 mM NH4Cl, 10 mM MgCl2, 1 mM […] and 100 μM GDP, in a final volume of 20 μl.
The material tufA gene in pGEX was expressed as an insoluble fusion protein in E.coli JM 109. The protein was detected either with antibodies to the GST tag or with antibodies to a specific peptide sequence in domain I ([…]) not found on E.coli EF-Tu. Washed inclusion bodies were dissolved and refolded by dilution (Lin et al 1991).

[4] = test system: eukaryotic cells; details: at 100 μM; cited from earlier work
[5] = in vivo; cited from earlier work
[6] = test system: Pf 28S cytosolic rRNA (cytosolic ribosomes); experiment: Puromycin shift of polysomes on sucrose gradients, cytosolic rRNA probe; type: biochemical, Plasmodium falciparum; details: 2 mM puromycin; anisomycin 3 mM pre-treatment
Protocol: (§2) Polysome preparation and puromycin shift—P.falciparum was grown in blood cultures (Trager et al 1976) and ribosomes prepared as described (Sherman et al 1975). Parasitized erythrocytes were lysed for 1 hr on ice in a buffer containing 0.14% Nonidet P-40 (Trade Name), 25 mM KCl, 10 mM MgCl2, 380 mM-sucrose, 6.5 mM β-mercaptoethanol and 50 mM Tris HCl, pH 7.6. The lysate was centrifuged×3 at 10,000 g for 10 min at 4° C. to remove genomic DNA and other cell debris before further centrifugation at 105,000 g for 1 hr in an SW40 rotor (Trade Name, Beckman) at 4° C. The resulting pellet was resuspended in 25 mM KCl, 5 mM MgCl2 and 50 mM Tris HCl (pH 7.6) and homogenized by hand (×50 strokes) with a glass dounce homogenizer (Wheatstone, USA). The suspension was centrifuged at 10,000 g for 10 min at 4° C. and the crude pellet discarded before further centrifugation for 2 hr at 105,000 g in an SW55 rotor (Beckman) at 4° C. The pellet was resuspended in 10 mM Tris HCl, 10 mM MgCl2, 100 mM KCl and homogenized again to give a suspension of ribosomes. […]
(§3) In an experiment with RNase (Cox 1969), total polysomes were incubated with a range of concentrations of RNase (1-13 ng ml^−1 ribosomes, Boehringer) prior to centrifugation for 30 min at 26° C. […] Hybridization signals were quantitated using a Molecular Dynamics phosphor imager. […]

[7] = test system: Corynebacterium spp; experiment: Parallel bioassay with a gram-positive bacterium; type: cell-based; details: parallel bioassays
Protocol: as §1

[8] = test system: P.falciparum; experiment: Treatment of parasites, removal of antibiotic by washing and 2 weeks follow-up in vitro; type: cell-based, Plasmodium falciparum; details: 1 mM for 1.5 cell cycles, washing, follow-up for 2 weeks in vitro
[9] = test system: P.falciparum; experiment: Vital staining with rhodamine 123 (mitochondrial staining of parasites); type: cell-based, Plasmodium falciparum; details: data not shown
Protocol: as §1

[10] = test system: Pf 16S rRNApl (plastid ribosomes); experiment: Puromycin shift of polysomes on sucrose gradients, plastid rRNA probe; type: biochemical, Plasmodium falciparum; details: 2 mM puromycin; anisomycin 3 mM pre-treatment
Protocol: as §2, §3

[11] = 3H-hypoxanthine and 14C-isoleucine

T1 sequence (Q25820 whole entry): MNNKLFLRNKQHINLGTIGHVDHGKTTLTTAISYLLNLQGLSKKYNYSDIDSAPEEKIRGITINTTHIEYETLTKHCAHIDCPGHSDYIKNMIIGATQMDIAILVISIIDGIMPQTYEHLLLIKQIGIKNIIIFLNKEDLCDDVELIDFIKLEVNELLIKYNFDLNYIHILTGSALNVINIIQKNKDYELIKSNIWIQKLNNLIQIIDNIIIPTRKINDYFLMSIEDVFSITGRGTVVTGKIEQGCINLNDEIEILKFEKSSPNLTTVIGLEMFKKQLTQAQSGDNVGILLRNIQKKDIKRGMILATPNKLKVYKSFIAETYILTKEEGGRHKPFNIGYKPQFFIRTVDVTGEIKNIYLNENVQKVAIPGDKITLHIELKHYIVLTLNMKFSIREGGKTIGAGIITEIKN

For `CC(=O)O[C@H]1C[C@@]2(C)[C@@H](C[C@@H](O)[C@H]3[C@@]4(C)CC[C@@H](O)[C@@H](C)[C@@H]4CC[C@@]32C)/C1=C(\CCC=C(C)C)C(=O)O` [Fusidic acid], the “effect on parasitaemias in mice” value ([1]; even at toxic dose levels, preliminary experiments) was “little effect on parasitaemias” and the “concentration at which maximum inhibition of radiotracer incorporation was achieved” value [2, 11] was 200 µM.

For `CNC(=O)C[C@@H]1NC(=O)c2csc(n2)-c2ccc(-c3nc(C4=N[C@H](C(=O)N5CCC[C@H]5C(N)=O)CO4)cs3)nc2-c2csc(n2)-c2csc(n2)[C@H]([C@@H](O)c2ccccc2)NC(=O)CNC(=O)c2nc(sc2COC)[C@H](C(C)C)NC(=O)c2nc1sc2C` [GE2270], the “inhibition of radiotracer incorporation in blood cultures, compared with other antibiotics” value ([2]; 3H-hypoxanthine and 14C-isoleucine, blood cultures) was “more inhibitory in blood cultures than either kirromycin or thiostrepton” and the “mobility (Mr) of the GDP form of the EF-Tu complex” value (“mobility (Mr)” below) [3] was “decreased”.

In the case of kirromycin, the “development of the infection in mice” value [1] is listed as “less effective in vivo than Aurodox”, the “effect on RNA, DNA and protein synthesis” value [4] is listed as “blocks RNA synthesis without affecting DNA or protein synthesis” and the “concentration at which maximum inhibition of radiotracer incorporation was achieved” value [2, 11] is listed as 100 µM. For the same molecule, the “mobility (Mr)” value [3] was “increased”.

For `C/C=C/C=C/[C@@H]1O[C@](O)([C@H](CC)C(=O)NC/C=C/C=C(\C)[C@@H](OC)[C@@H](C)[C@@H]2O[C@H](/C=C/C=C/C=C(\C)C(=O)c3c(O)ccn(C)c3=O)[C@H](O)[C@@H]2O)[C@H](O)[C@H](O[C@@H]2O[C@H](C)[C@@H](O[C@@H]3O[C@@H](C)[C@H](OC)[C@@H](O)[C@H]3OC)[C@@H](OC)[C@H]2O)C1(C)C` [Efrotomycin], the “oral absorption and plasma half-life” value [5] is given as “rapid oral absorption and prolonged plasma half-life”.

In the case of `NCCC[C@H](N)CC(=O)N[C@H]1CNC(=O)[C@H]([C@H]2C[C@H](O)NC(N)=N2)NC(=O)/C(=C/NC(N)=O)NC(=O)[C@H](CO)NC(=O)[C@H](CO)NC1=O` [viomycin] (β3hOrn-[Dap]SS[ΔAla(Z-3-ureido)][X1]; lactam 1-C), the “effect on P.falciparum (specificity control)” value ([2]; data not shown) is reported as “lack of effect”.

With `COc1ccc(C[C@H]2NC[C@H](O)[C@H]2OC(C)=O)cc1` [anisomycin] the “puromycin-shift of the hybridization signal, cytosolic rRNA” value [6] was “blocked the puromycin-induced shift”.

For `C/C=C\C=C\[C@@H]1O[C@](O)([C@H](CC)C(=O)NC/C=C/C=C(\C)[C@@H](OC)[C@@H](C)[C@@H]2O[C@H](/C=C/C=C/C=C(\C)C(=O)c3c(O)ccn(C)c3=O)[C@H](O)[C@@H]2O)[C@H](O)[C@H](O)C1(C)C` [Aurodox, 1-methylmocimycin], the “sensitivity of P.falciparum blood cultures relative to Corynebacterium spp” value [7] was “about 10 times”, the “parasite death or stasis” value [8] was “parasite death rather than stasis” and the “development of the infection in mice” value [1] was “lag in development of the infection compared with untreated controls”. The “loss of specific mt staining evident, time” value [9] was 2 to 3 h, the “first inhibitory effects on ring stage parasites, time after exposure” value ([2]; synchronized cultures) was “as early as five hours” and the “inhibitory effects maximal, time of exposure” value ([2]; synchronized cultures, ring stage parasites) was 10 h.

In the case of `COc1ccc(C[C@H](N)C(=O)N[C@H]2[C@@H](O)[C@H](n3cnc4c(N(C)C)ncnc43)O[C@@H]2CO)cc1` [puromycin], the “puromycin-shift of the hybridization signal, plastid rRNA” value [10] is reported as “caused a shift” and the “puromycin-shift of the hybridization signal, cytosolic rRNA” value [6] is reported as “caused a shift”.

With `CC/C=C/C(OC(N)=O)C(Cl)C(O)CC(=O)C(O)C(O)C(C)/C(Cl)=C/C=C/C=C(C)/C=C/C=C/C(=O)O[C@@H]1C[C@@H](C(=O)O)CC[C@@H]1O` (some centres unmarked) [Enacyloxin IIa] the “mobility (Mr)” value [3] was “increased”.

— patent US20020058266A1, “EF-Tu protein encoded on the plastid DNA of the malaria parasite and protein synthesis inhibitors effective as anti-malarial compounds” (priority 1997, published 2002)
